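A five-concentration, 48-hour dose response in 96-well plates underlies each endpoint, interpolated linearly between surrounding concentrations. At the GI50, growth is halved. At the TGI there is no net growth.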
Key:
Test in all cases: NCI tumour cell line growth inhibition, 48 h
K-562 leukemia = system: K-562 leukemia
SK-OV-3 ovarian = system: SK-OV-3 ovarian
M14 melanoma = system: M14 melanoma
TK-10 renal = system: TK-10 renal
UACC-62 melanoma = system: UACC-62 melanoma
HT29 colon = system: HT29 colon
KM20L2 colon = system: KM20L2 colon
COLO 205 colon = system: COLO 205 colon
MALME-3M melanoma = system: MALME-3M melanoma
HCT-15 colon = system: HCT-15 colon
HCT-116 colon = system: HCT-116 colon
SW-620 colon = system: SW-620 colon
SNB-78 CNS = system: SNB-78 CNS
ACHN renal = system: ACHN renal
DLD-1 colon = system: DLD-1 colon
HOP-62 NSCLC = system: HOP-62 NSCLC
IGROV1 ovarian = system: IGROV1 ovarian
U251 CNS = system: U251 CNS
DMS 273 small cell lung = system: DMS 273 small cell lung
SK-MEL-28 melanoma = system: SK-MEL-28 melanoma
CCRF-CEM leukemia = system: CCRF-CEM leukemia
SNB-19 CNS = system: SNB-19 CNS
SF-268 CNS = system: SF-268 CNS
RXF 393 renal = system: RXF 393 renal
UACC-257 melanoma = system: UACC-257 melanoma
M19-MEL melanoma = system: M19-MEL melanoma
OVCAR-3 ovarian = system: OVCAR-3 ovarian
SN12C renal = system: SN12C renal
NCI-H522 lung = system: NCI-H522 lung
LXFL 529 NSCLC = system: LXFL 529 NSCLC
SNB-75 CNS = system: SNB-75 CNS
NCI-H23 lung = system: NCI-H23 lung
A549 NSCLC = system: A549 NSCLC
SR leukemia = system: SR leukemia
NCI-H226 lung = system: NCI-H226 lung
NCI-H460 lung = system: NCI-H460 lung
MOLT-4 leukemia = system: MOLT-4 leukemia
KM12 colon = system: KM12 colon
HCC-2998 colon = system: HCC-2998 colon
EKVX NSCLC = system: EKVX NSCLC
SF-539 CNS = system: SF-539 CNS
UO-31 renal = system: UO-31 renal
HL-60(TB) leukemia = system: HL-60(TB) leukemia
DMS 114 small cell lung = system: DMS 114 small cell lung
OVCAR-8 ovarian = system: OVCAR-8 ovarian
LOX IMVI melanoma = system: LOX IMVI melanoma
786-0 renal = system: 786-0 renal
RPMI-8226 leukemia = system: RPMI-8226 leukemia
SF-295 CNS = system: SF-295 CNS
NCI/ADR-RES ovarian = system: NCI/ADR-RES ovarian
HS 578T breast = system: HS 578T breast
T-47D breast = system: T-47D breast
OVCAR-5 ovarian = system: OVCAR-5 ovarian
SK-MEL-5 melanoma = system: SK-MEL-5 melanoma
MDA-MB-231 breast = system: MDA-MB-231 breast
A498 renal = system: A498 renal
MDA-MB-435 = system: MDA-MB-435
PC-3 prostate = system: PC-3 prostate
DU-145 prostate = system: DU-145 prostate
MCF7 breast = system: MCF7 breast
BT-549 breast = system: BT-549 breast
MDA-N = system: MDA-N
CAKI-1 renal = system: CAKI-1 renal
HOP-92 NSCLC = system: HOP-92 NSCLC
OVCAR-4 ovarian = system: OVCAR-4 ovarian
SK-MEL-2 melanoma = system: SK-MEL-2 melanoma
HOP-18 NSCLC = system: HOP-18 NSCLC

## COc1cccc(-c2cc(=O)c3cc(OC)c(OC)cc3[nH]2)c1
K-562 leukemia
  TGI: > 100 µM
SK-OV-3 ovarian
  TGI: > 100 µM
M14 melanoma
  TGI: > 100 µM
TK-10 renal
  TGI: > 100 µM
UACC-62 melanoma
  TGI: > 100 µM
HT29 colon
  TGI: > 100 µM
KM20L2 colon
  TGI: > 100 µM
COLO 205 colon
  TGI: > 100 µM
MALME-3M melanoma
  TGI: > 100 µM
HCT-15 colon
  TGI: > 100 µM
HCT-116 colon
  GI50: 59.2 µM
  TGI: > 100 µM
SW-620 colon
  TGI: > 100 µM
SNB-78 CNS
  TGI: > 100 µM
ACHN renal
  TGI: > 100 µM
DLD-1 colon
  TGI: > 100 µM
HOP-62 NSCLC
  TGI: > 100 µM
IGROV1 ovarian
  TGI: > 100 µM
U251 CNS
  TGI: > 100 µM
DMS 273 small cell lung
  TGI: > 100 µM
SK-MEL-28 melanoma
  TGI: > 100 µM
CCRF-CEM leukemia
  TGI: > 100 µM
SNB-19 CNS
  TGI: > 100 µM
SF-268 CNS
  GI50: 49.6 µM
  TGI: > 100 µM
RXF 393 renal
  GI50: 33.3 µM
  TGI: > 100 µM
UACC-257 melanoma
  TGI: > 100 µM
M19-MEL melanoma
  TGI: > 100 µM
OVCAR-3 ovarian
  GI50: 33.5 µM
  TGI: > 100 µM
SN12C renal
  TGI: > 100 µM
NCI-H522 lung
  TGI: 42.4 µM
LXFL 529 NSCLC
  TGI: > 100 µM
SNB-75 CNS
  TGI: > 100 µM
NCI-H23 lung
  TGI: > 100 µM
A549 NSCLC
  TGI: > 100 µM
SR leukemia
  TGI: > 100 µM
NCI-H226 lung
  GI50: 21.5 µM
  TGI: 79.8 µM
NCI-H460 lung
  TGI: > 100 µM
MOLT-4 leukemia
  TGI: > 100 µM
KM12 colon
  TGI: > 100 µM
HCC-2998 colon
  TGI: > 100 µM
EKVX NSCLC
  TGI: > 100 µM
SF-539 CNS
  TGI: 77.3 µM
UO-31 renal
  TGI: > 100 µM
HL-60(TB) leukemia
  TGI: > 100 µM
DMS 114 small cell lung
  GI50: 54.4 µM
  TGI: > 100 µM
OVCAR-8 ovarian
  TGI: > 100 µM
LOX IMVI melanoma
  TGI: > 100 µM
786-0 renal
  TGI: > 100 µM
RPMI-8226 leukemia
  TGI: > 100 µM
SF-295 CNS
  GI50: 40.3 µM
  TGI: > 100 µM

## Cc1ccccc1C1CC(=O)CC(c2ccccc2C)C12C(=O)NC(=O)NC2=O (stereo not given)
NCI/ADR-RES ovarian
  TGI: > 100 µM
K-562 leukemia
  TGI: > 100 µM
SK-OV-3 ovarian
  TGI: > 100 µM
HS 578T breast
  TGI: > 100 µM
T-47D breast
  TGI: > 100 µM
OVCAR-5 ovarian
  TGI: > 100 µM
M14 melanoma
  TGI: > 100 µM
TK-10 renal
  TGI: > 100 µM
UACC-62 melanoma
  TGI: > 100 µM
HT29 colon
  TGI: > 100 µM
COLO 205 colon
  TGI: > 100 µM
MALME-3M melanoma
  TGI: > 100 µM
SK-MEL-5 melanoma
  TGI: > 100 µM
HCT-15 colon
  TGI: > 100 µM
HCT-116 colon
  TGI: > 100 µM
SW-620 colon
  TGI: > 100 µM
ACHN renal
  TGI: > 100 µM
HOP-62 NSCLC
  TGI: > 100 µM
IGROV1 ovarian
  TGI: > 100 µM
MDA-MB-231 breast
  TGI: > 100 µM
U251 CNS
  TGI: > 100 µM
SK-MEL-28 melanoma
  TGI: > 100 µM
A498 renal
  TGI: > 100 µM
CCRF-CEM leukemia
  TGI: > 100 µM
SNB-19 CNS
  TGI: > 100 µM
MDA-MB-435
  TGI: > 100 µM
SF-268 CNS
  TGI: > 100 µM
RXF 393 renal
  TGI: > 100 µM
UACC-257 melanoma
  TGI: > 100 µM
OVCAR-3 ovarian
  TGI: > 100 µM
SN12C renal
  TGI: > 100 µM
NCI-H522 lung
  TGI: > 100 µM
SNB-75 CNS
  TGI: > 100 µM
PC-3 prostate
  TGI: > 100 µM
NCI-H23 lung
  TGI: > 100 µM
A549 NSCLC
  TGI: > 100 µM
SR leukemia
  TGI: > 100 µM
NCI-H226 lung
  TGI: > 100 µM
NCI-H460 lung
  TGI: > 100 µM
MOLT-4 leukemia
  TGI: > 100 µM
DU-145 prostate
  TGI: > 100 µM
MCF7 breast
  TGI: > 100 µM
KM12 colon
  TGI: > 100 µM
HCC-2998 colon
  TGI: > 100 µM
EKVX NSCLC
  TGI: > 100 µM
SF-539 CNS
  TGI: > 100 µM
BT-549 breast
  TGI: > 100 µM
MDA-N
  TGI: > 82.8 µM
UO-31 renal
  TGI: > 100 µM
CAKI-1 renal
  TGI: > 100 µM
HL-60(TB) leukemia
  TGI: > 100 µM
HOP-92 NSCLC
  TGI: > 100 µM
OVCAR-8 ovarian
  TGI: > 100 µM
LOX IMVI melanoma
  TGI: > 100 µM
786-0 renal
  TGI: > 100 µM
RPMI-8226 leukemia
  TGI: 97.4 µM
SF-295 CNS
  TGI: > 100 µM
OVCAR-4 ovarian
  TGI: > 100 µM
SK-MEL-2 melanoma
  TGI: > 100 µM

## OC12c3ccccc3C1(N1CCOCC1)CCCCC21OCCCO1 (stereo not given)
K-562 leukemia
  TGI: > 100 µM
SK-OV-3 ovarian
  TGI: > 100 µM
OVCAR-5 ovarian
  TGI: > 100 µM
M14 melanoma
  TGI: > 100 µM
TK-10 renal
  TGI: > 100 µM
UACC-62 melanoma
  TGI: > 100 µM
HT29 colon
  TGI: > 100 µM
KM20L2 colon
  TGI: > 100 µM
COLO 205 colon
  TGI: > 100 µM
MALME-3M melanoma
  TGI: > 100 µM
SK-MEL-5 melanoma
  TGI: > 100 µM
HCT-15 colon
  TGI: > 100 µM
HCT-116 colon
  TGI: > 100 µM
SNB-78 CNS
  TGI: > 100 µM
ACHN renal
  TGI: > 100 µM
DLD-1 colon
  TGI: > 100 µM
HOP-62 NSCLC
  TGI: > 100 µM
IGROV1 ovarian
  TGI: > 100 µM
U251 CNS
  TGI: > 100 µM
DMS 273 small cell lung
  TGI: > 100 µM
SK-MEL-28 melanoma
  TGI: > 100 µM
A498 renal
  TGI: > 100 µM
CCRF-CEM leukemia
  TGI: > 100 µM
SNB-19 CNS
  TGI: > 100 µM
SF-268 CNS
  TGI: > 100 µM
RXF 393 renal
  TGI: > 100 µM
UACC-257 melanoma
  TGI: > 100 µM
OVCAR-3 ovarian
  TGI: > 100 µM
SN12C renal
  TGI: > 100 µM
NCI-H522 lung
  TGI: > 100 µM
LXFL 529 NSCLC
  TGI: > 100 µM
SNB-75 CNS
  TGI: > 100 µM
NCI-H23 lung
  TGI: > 100 µM
A549 NSCLC
  TGI: > 100 µM
NCI-H226 lung
  TGI: > 100 µM
NCI-H460 lung
  TGI: > 100 µM
MOLT-4 leukemia
  TGI: > 100 µM
KM12 colon
  TGI: > 100 µM
HOP-18 NSCLC
  TGI: > 100 µM
SF-539 CNS
  TGI: > 100 µM
CAKI-1 renal
  TGI: > 100 µM
HL-60(TB) leukemia
  TGI: > 100 µM
DMS 114 small cell lung
  TGI: > 100 µM
OVCAR-8 ovarian
  TGI: > 100 µM
LOX IMVI melanoma
  TGI: > 100 µM
786-0 renal
  TGI: > 100 µM
RPMI-8226 leukemia
  TGI: > 100 µM
SF-295 CNS
  TGI: > 100 µM
OVCAR-4 ovarian
  TGI: > 100 µM
SK-MEL-2 melanoma
  TGI: > 100 µM

## C=C(C)C1CC=C(C)[C@](O)(C2(O)C[C@H](C(=C)C)CC=C2C)C1 (stereo not given in full)
SK-OV-3 ovarian
  TGI: > 100 µM
OVCAR-5 ovarian
  TGI: > 100 µM
M14 melanoma
  TGI: > 100 µM
TK-10 renal
  TGI: > 100 µM
UACC-62 melanoma
  TGI: > 100 µM
HT29 colon
  TGI: > 100 µM
KM20L2 colon
  TGI: > 100 µM
HCT-116 colon
  TGI: > 100 µM
SNB-78 CNS
  TGI: > 100 µM
ACHN renal
  TGI: > 100 µM
HOP-62 NSCLC
  TGI: > 100 µM
IGROV1 ovarian
  TGI: > 100 µM
U251 CNS
  TGI: > 100 µM
DMS 273 small cell lung
  TGI: > 100 µM
SK-MEL-28 melanoma
  TGI: > 100 µM
A498 renal
  TGI: > 100 µM
CCRF-CEM leukemia
  TGI: > 100 µM
SNB-19 CNS
  TGI: > 100 µM
RXF 393 renal
  TGI: > 100 µM
UACC-257 melanoma
  TGI: > 100 µM
M19-MEL melanoma
  TGI: > 100 µM
NCI-H522 lung
  TGI: > 100 µM
NCI-H23 lung
  TGI: > 100 µM
A549 NSCLC
  TGI: > 100 µM
SR leukemia
  TGI: > 100 µM
NCI-H460 lung
  TGI: > 100 µM
MOLT-4 leukemia
  TGI: > 100 µM
KM12 colon
  TGI: > 100 µM
EKVX NSCLC
  TGI: > 100 µM
UO-31 renal
  TGI: > 100 µM
HL-60(TB) leukemia
  TGI: > 100 µM
HOP-92 NSCLC
  TGI: > 100 µM
DMS 114 small cell lung
  TGI: > 100 µM
OVCAR-8 ovarian
  TGI: > 100 µM
SF-295 CNS
  TGI: > 100 µM

— PubChem BioAssay (NCI)
